For experiment [1], the target named is T1, BCL2/BID (Homo sapiens, UniProt P10415). As to the kind of experiment: Binding affinity to Bcl-2/Bid (unknown origin) by fluorescence polarization assay. The class given is protein assay.
In experiment [2] the target is T2, Induced myeloid leukemia cell differentiation protein Mcl-1/BH3-interacting domain death agonist (Homo sapiens, UniProt Q07820). Put plainly: Binding affinity to Mcl-1/Bid (unknown origin) by fluorescence polarization assay. In kind it is protein assay.
T2 sequence (Q07820 whole entry, one chain of several, the tested form may be a part): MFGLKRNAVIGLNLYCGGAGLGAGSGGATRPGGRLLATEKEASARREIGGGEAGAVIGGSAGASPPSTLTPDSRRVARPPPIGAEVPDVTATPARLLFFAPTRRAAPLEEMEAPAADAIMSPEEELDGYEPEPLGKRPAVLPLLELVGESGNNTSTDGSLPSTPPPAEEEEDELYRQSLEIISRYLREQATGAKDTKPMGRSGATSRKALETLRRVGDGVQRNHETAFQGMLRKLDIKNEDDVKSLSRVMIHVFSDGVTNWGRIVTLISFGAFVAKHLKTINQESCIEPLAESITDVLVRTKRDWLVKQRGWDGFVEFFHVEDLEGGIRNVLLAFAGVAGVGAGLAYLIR
Experiment [3] has as its target T3, Bcl-xL/BH3-interacting domain death agonist (Homo sapiens, UniProt Q07817). As to the kind of experiment: Binding affinity to Bcl-xL/Bid (unknown origin) by fluorescence polarization assay. The class given is protein assay.
Experiment [4] concerns the target Apoptosis regulator Bcl-2 (Homo sapiens, UniProt P10415). Put plainly: Binding affinity to Bcl-2 (unknown origin) assessed as inhibition constant.
Experiment [5] deals with Bcl-2-like protein 1 (Homo sapiens, UniProt Q07817). Put plainly: Binding affinity to Bcl-xL (unknown origin) assessed as inhibition constant.
Chain of Bcl-2-like protein 1 (Q07817 whole entry): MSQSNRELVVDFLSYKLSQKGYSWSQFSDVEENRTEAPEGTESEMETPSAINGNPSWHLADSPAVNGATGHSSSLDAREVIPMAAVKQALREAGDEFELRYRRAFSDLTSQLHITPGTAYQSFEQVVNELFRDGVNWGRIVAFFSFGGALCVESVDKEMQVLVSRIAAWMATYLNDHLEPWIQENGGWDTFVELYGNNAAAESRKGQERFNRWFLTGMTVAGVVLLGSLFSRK
For experiment [6], the target named is T4, Induced myeloid leukemia cell differentiation protein Mcl-1 (Homo sapiens, UniProt Q07820). As to the kind of experiment: Binding affinity to Mcl-1 (unknown origin) assessed as inhibition constant.
T4 sequence (Q07820 whole entry): as the sequence (Q07820 whole entry, one chain of several, the tested form may be a part) above
In experiment [7] the target is T4, Induced myeloid leukemia cell differentiation protein Mcl-1. As to the kind of experiment: Binding affinity to wildtype Mcl-1 (unknown origin) assessed as dissociation constant by SPR analysis.
The target of experiment [8] is T5, Induced myeloid leukemia cell differentiation protein Mcl-1/Bcl-2-like protein 11 (Homo sapiens, UniProt Q07820). As to the kind of experiment: Inhibition of Mcl-1/Bim (unknown origin) by ELISA method. In kind it is protein assay.
T5 sequence (Q07820 whole entry): as the sequence (Q07820 whole entry, one chain of several, the tested form may be a part) above
T5 sequence (O43521 whole entry, further chain): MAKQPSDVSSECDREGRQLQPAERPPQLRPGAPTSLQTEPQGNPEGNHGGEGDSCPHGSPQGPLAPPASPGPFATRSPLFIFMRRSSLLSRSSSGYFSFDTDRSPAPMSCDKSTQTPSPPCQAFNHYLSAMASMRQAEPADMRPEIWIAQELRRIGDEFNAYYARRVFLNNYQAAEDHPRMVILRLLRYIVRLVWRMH
The target in experiment [9] is BCL2/BCL2L11 (Homo sapiens, UniProt P10415). As to the kind of experiment: Inhibition of Bcl-2/Bim (unknown origin) by ELISA method. In kind it is protein assay.
Chain of BCL2/BCL2L11 (P10415 whole entry): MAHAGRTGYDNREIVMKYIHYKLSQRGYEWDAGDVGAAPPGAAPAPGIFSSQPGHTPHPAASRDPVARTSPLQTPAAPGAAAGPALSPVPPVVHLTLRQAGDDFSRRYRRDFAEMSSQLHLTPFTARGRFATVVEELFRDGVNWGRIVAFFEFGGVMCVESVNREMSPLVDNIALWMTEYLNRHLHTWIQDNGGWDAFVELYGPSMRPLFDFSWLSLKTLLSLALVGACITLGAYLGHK
Chain of BCL2/BCL2L11 (O43521 whole entry, further chain): as the sequence (O43521 whole entry, further chain) above
Experiment [10] relates to K562. Put plainly: Cytotoxicity against human K562 cells. The class given is functional, cell-based.
The nature of experiment [11]: Binding affinity to Mcl-1 H224A (unknown origin) assessed as dissociation constant by SPR analysis. Also noted: species or system Homo sapiens.
For experiment [12], the system named is HeLa. As to the kind of experiment: Cytotoxicity against human HeLa cells. In kind it is functional, cell-based.
Experiment [13] has as its target T6, Bcl-xL/Bcl-2-like protein 11 (Homo sapiens, UniProt Q07817). As to the kind of experiment: Inhibition of Bcl-xL/Bim (unknown origin) by ELISA method. In kind it is protein assay.
The target in experiment [14] is T5, Induced myeloid leukemia cell differentiation protein Mcl-1/Bcl-2-like protein 11. As to the kind of experiment: Inhibition of GST-tagged Mcl-1/Bim (unknown origin) incubated for 15 mins followed by Bim addition measured after 2 hrs by ELISA method. In kind it is protein assay.
In experiment [15] the target is T6, Bcl-xL/Bcl-2-like protein 11. As to the kind of experiment: Inhibition of GST-tagged Bcl-xL/Bim (unknown origin) incubated for 15 mins followed by Bim addition measured after 2 hrs by ELISA method. The class given is protein assay.
The target of experiment [16] is Apoptosis regulator Bcl-2/Bcl-2 homologous antagonist/killer (Homo sapiens, UniProt P10415+Q16611). As to the kind of experiment: Inhibition of Bcl-2/Bak (unknown origin). In kind it is protein assay.
Chain of Apoptosis regulator Bcl-2/Bcl-2 homologous antagonist/killer (P10415 whole entry, one chain of several): as the sequence (P10415 whole entry) above
Experiment [17] deals with T7, BCL2A1/BAK1 (Homo sapiens, UniProt Q16548+Q16611).
T7 sequence (Q16611 whole entry): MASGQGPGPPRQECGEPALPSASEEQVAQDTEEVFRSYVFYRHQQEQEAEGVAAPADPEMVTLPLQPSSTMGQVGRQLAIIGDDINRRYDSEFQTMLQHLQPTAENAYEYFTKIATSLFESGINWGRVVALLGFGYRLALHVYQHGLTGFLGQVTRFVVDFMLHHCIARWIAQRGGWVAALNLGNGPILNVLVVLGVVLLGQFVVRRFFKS
T7 sequence (Q16548 whole entry): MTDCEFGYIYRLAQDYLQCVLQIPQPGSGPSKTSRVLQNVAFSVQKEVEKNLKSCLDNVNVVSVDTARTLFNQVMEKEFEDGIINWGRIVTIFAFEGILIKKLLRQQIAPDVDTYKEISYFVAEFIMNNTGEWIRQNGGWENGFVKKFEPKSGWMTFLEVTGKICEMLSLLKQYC
Put plainly: Inhibition of Bfl-1/Bak (unknown origin). In kind it is protein assay.

Experiment [18] concerns the target MCL1-BAK1 complex (Homo sapiens, UniProt Q07820). As to the kind of experiment: Binding affinity to Mcl-1/Bak (unknown origin) assessed as inhibition constant by fluorescence polarization assay. The class given is protein-complex assay.
Experiment [19] addresses T8, Bcl-xL/BAK (Homo sapiens, UniProt Q07817). Put plainly: Binding affinity to Bcl-xL/Bak (unknown origin) assessed as dissociation constant by ITC method. The class given is protein assay.
The target in experiment [20] is T8, Bcl-xL/BAK. As to the kind of experiment: Binding affinity to Bcl-xL/Bak (unknown origin) assessed as inhibition constant by fluorescence polarization assay. The class given is protein assay.
Experiment [21] deals with BCL2/BAD (Homo sapiens, UniProt P10415). Put plainly: Binding affinity to Bcl-2/Bad (unknown origin) assessed as inhibition constant by fluorescence polarisation assay. The class given is protein assay.
Chain of BCL2/BAD (Q92934 whole entry): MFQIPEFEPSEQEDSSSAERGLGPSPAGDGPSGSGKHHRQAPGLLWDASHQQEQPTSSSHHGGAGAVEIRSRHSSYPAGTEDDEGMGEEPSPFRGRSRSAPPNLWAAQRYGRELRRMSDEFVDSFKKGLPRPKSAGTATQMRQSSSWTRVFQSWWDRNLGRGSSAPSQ
Chain of BCL2/BAD (P10415 whole entry): as the sequence (P10415 whole entry) above
Experiment [22] is described as follows: Binding affinity to Bcl-xL/Bad (unknown origin) assessed as inhibition constant by fluorescence polarisation assay. Also on record: species or system Homo sapiens.
Experiment [23] addresses T2, Induced myeloid leukemia cell differentiation protein Mcl-1/BH3-interacting domain death agonist. Put plainly: Inhibition of Mcl-1/Bid (unknown origin). In kind it is protein assay.
Experiment [24] deals with T3, Bcl-xL/BH3-interacting domain death agonist. Put plainly: Inhibition of Bcl-xL/Bid complex (unknown origin). In kind it is protein assay.
The target in experiment [25] is BCL2L10/BID (Homo sapiens, UniProt P55957+Q9HD36). Put plainly: Inhibition of Bcl-B/Bid (unknown origin). In kind it is protein assay.
Chain of BCL2L10/BID (Q9HD36 whole entry, one chain of several): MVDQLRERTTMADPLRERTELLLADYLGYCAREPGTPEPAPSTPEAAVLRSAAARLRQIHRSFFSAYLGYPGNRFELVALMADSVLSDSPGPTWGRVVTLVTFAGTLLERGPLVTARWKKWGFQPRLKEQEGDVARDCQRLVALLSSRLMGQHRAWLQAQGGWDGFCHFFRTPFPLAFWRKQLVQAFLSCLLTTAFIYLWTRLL
Experiment [26] addresses T9, BCL2A1/BID (Homo sapiens, UniProt Q16548).
T9 sequence (Q16548 whole entry): T7 sequence (Q16548 whole entry)
T9 sequence (P55957 whole entry): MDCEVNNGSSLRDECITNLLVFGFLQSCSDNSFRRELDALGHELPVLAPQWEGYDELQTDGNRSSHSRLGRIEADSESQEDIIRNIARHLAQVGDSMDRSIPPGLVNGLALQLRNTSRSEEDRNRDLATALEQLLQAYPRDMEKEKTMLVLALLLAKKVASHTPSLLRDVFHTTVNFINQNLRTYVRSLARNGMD
As to the kind of experiment: Inhibition of Bfl-1/Bid (unknown origin). In kind it is protein assay.

Experiment [27] deals with T10, BCL2L2/BID (Homo sapiens, UniProt P55957+Q92843).
T10 sequence (Q92843 whole entry): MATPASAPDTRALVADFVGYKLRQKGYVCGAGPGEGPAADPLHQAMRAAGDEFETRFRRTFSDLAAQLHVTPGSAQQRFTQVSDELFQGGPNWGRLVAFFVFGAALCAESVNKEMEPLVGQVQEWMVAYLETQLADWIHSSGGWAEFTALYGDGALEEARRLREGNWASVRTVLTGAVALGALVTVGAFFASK
T10 sequence (P55957 whole entry): T9 sequence (P55957 whole entry)
Put plainly: Inhibition of Bcl-W/Bid (unknown origin). In kind it is protein assay.

The target of experiment [28] is T1, BCL2/BID. Put plainly: Inhibition of Bcl-2/Bid (unknown origin). The class given is protein assay.
Experiment [29] concerns the target T3, Bcl-xL/BH3-interacting domain death agonist. As to the kind of experiment: Inhibition of Bcl-xL/Bid (unknown origin) by fluorescence polarization assay. In kind it is protein assay.
In experiment [30] the target is T2, Induced myeloid leukemia cell differentiation protein Mcl-1/BH3-interacting domain death agonist. As to the kind of experiment: Inhibition of Mcl-1/Bid (unknown origin) by fluorescence polarization assay. The class given is protein assay.
For experiment [31], the system named is OPM-2. Put plainly: Cytotoxicity against human OPM-2 cells assessed as cell viability. In kind it is functional, cell-based.

T6 sequence (Q07817 whole entry): as the sequence (Q07817 whole entry) above
T6 sequence (O43521 whole entry, further chain): as the sequence (O43521 whole entry, further chain) above
T8 sequence (Q07817 whole entry, one chain of several): as the sequence (Q07817 whole entry) above
T3 sequence (Q07817 whole entry, one chain of several, the tested form may be a part): as the sequence (Q07817 whole entry) above
T1 sequence (P10415 whole entry, one chain of several, the tested form may be a part): as the sequence (P10415 whole entry) above
Chain of MCL1-BAK1 complex (Q07820 whole entry, one chain of several): as the sequence (Q07820 whole entry, one chain of several, the tested form may be a part) above
Chain of Apoptosis regulator Bcl-2 (P10415 whole entry): as the sequence (P10415 whole entry) above

For `O=C(Cn1nnnc1-c1ccccc1Oc1ccc(Cl)cc1Cl)NNC(=S)Nc1ccc([N+](=O)[O-])cc1`, the Ki in experiment [1] came to 2400 nM; in experiment [2], 2000 nM; in experiment [3] it was 3000 nM.

Regarding `O=C(O)C1C2CC(Sc3ccccc3[N+](=O)[O-])C(Cl)C2c2cc(Cl)cc3c2N1CC1CC=CC31` (stereo not given), the Ki is 15000 nM in experiment [4], at least 50000 nM in [5] and 530 nM in experiment [6].

Consider `O=C1CCC(N2C(=O)c3cccc4c(Sc5ccc(Br)cc5)ccc(c34)C2=O)C(=O)N1` (stereo not given), for which the Kd in experiment [7] was determined as 150 nM; in experiment [11] it was 130 nM. Also, the IC50 in experiment [8] was determined as 150 nM; in experiment [9] it was 430 nM; in [10], 7300 nM; in experiment [12], 10400 nM.

For the compound `O=C(COc1ccc2ccccc2c1)NCCN1C(=O)c2cccc3c(Sc4ccc(Br)cc4)ccc(c23)C1=O`, the results for the Kd in [7] and in experiment [11] were 150 nM and 1130 nM, respectively. The IC50 was found to be 510 nM in [8], 9460 nM in [9], 10100 nM in experiment [10] and 43200 nM in experiment [12].

With `O=C(Cn1nnc(-c2ccccc2Oc2ccc(Cl)cc2Cl)n1)NNC(=S)Nc1ccc([N+](=O)[O-])cc1`, the Ki in experiment [1] came out at 1900 nM; in experiment [2] it was 2200 nM; in experiment [3], 3500 nM.

`O=C1c2ccc(OS(=O)(=O)C(F)(F)F)cc2Oc2c(Cl)c(Cl)c(C(=O)c3ccc(OS(=O)(=O)C(F)(F)F)cc3O)n2-c2c1[nH]c(Cl)c2Cl`: the IC50 in [8] worked out at 1400 nM; in [13], 2300 nM.

As for `COC(=O)c1ccc(C(=O)c2c(Cl)c(Cl)c3n2-c2c([nH]c(Cl)c2Cl)C(=O)c2ccc(C(=O)OC)cc2O3)c(O)c1`, the IC50 in [8] came out at 4300 nM; in [13], 3400 nM.

Regarding `O=C(c1ccc(SCc2ccccc2)cc1O)c1[nH]c(Cl)c(Cl)c1-n1cc(Cl)c(Cl)c1C(=O)c1ccc(SCc2ccccc2)cc1O`, the IC50 in experiment [14] turned out to be 700 nM; in experiment [15], 600 nM.

For `Cc1cc2c(C(=O)NC(C)c3ccc(Cl)cc3)c(O)c(O)cc2c(O)c1-c1c(C)cc2c(C(=O)NC(C)c3ccc(Cl)cc3)c(O)c(O)cc2c1O` (stereo not given), the IC50 in [16] came to 490 nM; in [17] it was 400 nM.

For the compound `COc1ccc(-c2ccc(/C=C3\SC(=S)N([C@@H](Cc4ccccc4)C(=O)O)C3=O)cn2)cc1OC`, the Ki in experiment [18] was 8000 nM; in experiment [20], over 100000 nM. The Kd in experiment [19] was over 750000 nM.

Take `COc1cccc(-c2ccc(/C=C3\SC(=S)N([C@@H](Cc4ccccc4)C(=O)O)C3=O)cn2)c1OC`: in experiment [18], the Ki amounted to 6900 nM. Also, in [19], the Kd is 3400 nM.

For `O=C(O[C@@H]1Cc2c(O)cc(O)cc2O[C@@H]1c1cc(O)c(O)c(O)c1)c1cc(O)c(O)c(O)c1` [EPIGALOCATECHIN GALLATE], the figures for the inhibition constant Ki in experiment [21] and in [22] were 490 nM and 335 nM, respectively. The IC50 in experiment [23] was determined as 920 nM; in [24], 590 nM; in experiment [25], 360 nM; in experiment [26] it was 1790 nM; in experiment [27], 2330 nM; in experiment [28] it was 450 nM.

For the compound `Cc1cc2c(C(C)C)c(O)c(O)c(C=O)c2c(O)c1-c1c(C)cc2c(C(C)C)c(O)c(O)c(C=O)c2c1O` [GOSSYPOL], the concentration for half-maximal inhibition (IC50) in experiment [29] was 3030 nM; in [30], 1750 nM.

On to `O=C(O)C(O)c1ccccc1` (stereo not given) [MANDELIC ACID], for which the IC50 in [31] worked out at 19 nM.

The values above are taken from ChEMBL document CHEMBL5113375, “Development of Mcl-1 inhibitors for cancer therapy” (Eur J Med Chem, 2021).
